In patent US10155765B2, “Carboxamide inhibitors of IRAK4 activity” (MERCK SHARP & DOHME CORP., priority 2015, dated 2018):
Where a name gives a salt, the structure may show the parent alone.

Molecular target: IRAK4 (Homo sapiens (Human), UniProt Q9NWZ3)
Test: IRAK4 Kinase Assay (IMAP fluorescence polarization)
Format: biochemical
Conditions: GST tagged IRAK4, 100 μM ATP, 30 minutes at 25° C., IMAP FP
Description: Other assays are known in the literature and could be readily performed by those of skill in the art.
The reaction is initiated by the addition of ATP.

Sequence of IRAK4 (Q9NWZ3 whole entry): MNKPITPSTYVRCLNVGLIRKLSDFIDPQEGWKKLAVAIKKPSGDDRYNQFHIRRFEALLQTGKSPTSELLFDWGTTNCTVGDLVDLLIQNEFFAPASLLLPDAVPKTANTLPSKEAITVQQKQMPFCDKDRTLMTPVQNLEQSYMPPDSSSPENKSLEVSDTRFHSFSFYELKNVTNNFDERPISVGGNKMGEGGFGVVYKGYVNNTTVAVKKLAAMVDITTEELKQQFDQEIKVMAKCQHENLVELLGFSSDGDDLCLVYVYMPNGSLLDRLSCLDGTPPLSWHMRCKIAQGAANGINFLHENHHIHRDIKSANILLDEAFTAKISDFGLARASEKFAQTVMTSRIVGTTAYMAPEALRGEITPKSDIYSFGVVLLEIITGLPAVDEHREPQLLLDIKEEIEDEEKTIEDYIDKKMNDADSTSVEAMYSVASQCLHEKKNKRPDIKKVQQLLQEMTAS

Question: For Cn1cc(NC(=O)c2cnn3ccc(N[C@H]4CS(=O)(=O)CC[C@H]4N)nc23)c(C(N)=O)n1 (relative stereo) [Example 5, 5-{[cis-4-amino-1,1-dioxidotetrahydro-2H-thiopyran-3-yl]amino}-N-(3-carbamoyl-1-methyl-1H-pyrazol-4-yl)pyrazolo[1,5-a]pyrimidine-3-carboxamide trifluoroacetate], which IC50 is on record?
Answer: Its IC50 is 15 nM.

Question: For CC(C)(C)OC(=O)N1CCC(n2cc(NC(=O)c3cnn4cccnc34)c(C(N)=O)n2)CC1 [Example 46, tert-butyl 4-{3-carbamoyl-4-[(pyrazolo[1,5-a]pyrimidin-3-ylcarbonyl)amino]-1H-pyrazol-1-yl}piperidine-1-carboxylate], which IC50 is on record?
Answer: The IC50 was 670 nM.

Question: Which IC50 does the source give for Cn1cc(NC(=O)c2csc3nccnc23)c(C(N)=O)n1 [Example 56, N-(3-Carbamoyl-1-methyl-1H-pyrazol-4-yl)thieno[2,3-b]pyrazine-7-carboxamide] here?
Answer: Its IC50 is 69 nM.

Question: Which IC50 does the source give for CNC(=O)c1nn(C)cc1NC(=O)c1ccc2cnc(NCCN)nn12 [Example 60, 2-[(2-aminoethyl)amino]-N-[1-methyl-3-(methylcarbamoyl)-1H-pyrazol-4-yl]pyrrolo[2,1-f][1,2,4]triazine-7-carboxamide trifluoroacetate] here?
Answer: The IC50 was 3 nM.

Question: Cn1cc(NC(=O)c2cnn3ccc(N[C@@H]4CCCC(F)(F)[C@@H]4N)nc23)c(C(N)=O)n1 [Example 3, 5-{[(1R,2R)-2-amino-3,3-difluorocyclohexyl]amino}-N-(3-carbamoyl-1-methyl-1H-pyrazol-4-yl)pyrazolo[1,5-a]pyrimidine-3-carboxamide trifluoroacetate] was tested. Which IC50 did it give?
Answer: The IC50 was 32 nM.

Question: For Cn1cc(NC(=O)c2cnn3ccc(N4CCNC(=O)C4)nc23)c(C(N)=O)n1 [Example 38, N-(3-Carbamoyl-1-methyl-1H-pyrazol-4-yl)-5-(3-oxopiperazin-1-yl)pyrazolo[1,5-a]pyrimidine-3-carboxamide], which IC50 is on record?
Answer: Its IC50 is 400 nM.

Question: For CNC(=O)c1nn(C)cc1NC(=O)c1ccc2cnc(N[C@@H]3CCCC[C@@H]3N)nn12 [Example 64, 2-{[(1R,2S)-2-aminocyclohexyl]amino}-N-[1-methyl-3-(methylcarbamoyl)-1H-pyrazol-4-yl]pyrrolo[2,1-f][1,2,4]triazine-7-carboxamide trifluoroacetate], which IC50 is on record?
Answer: The IC50 was 13 nM.

Question: For NC(=O)c1nn(C2CCNCC2)cc1NC(=O)c1cnn2cccnc12 [Example 47, N-(3-carbamoyl-1-piperidin-4-yl-1H-pyrazol-4-yl)pyrazolo[1,5-a]pyrimidine-3-carboxamide hydrochloride], which IC50 is on record?
Answer: The IC50 was 470 nM.

Question: With CS(=O)(=O)N1CCCC(n2cc(NC(=O)c3cnn4ccc(N[C@H]5CCCC[C@H]5N)nc34)c(C(N)=O)n2)C1 (relative stereo) [Example 20, 5-{[cis-2-aminocyclohexyl]amino}-N-{3-carbamoyl-1-[1-(methylsulfonyl)piperidin-3-yl]-1H-pyrazol-4-yl}pyrazolo[1,5-a]pyrimidine-3-carboxamide trifluoroacetate] as the compound, how does the IC50 read?
Answer: The IC50 was 4 nM.

Question: With CC(C)n1cc(NC(=O)c2cnn3ccc(N[C@@H]4CCCC[C@@H]4N)nc23)c(C(N)=O)n1 [Example 22, 5-{[(1R,2S)-2-aminocyclohexyl]amino}-N-[3-carbamoyl-1-(1-methylethyl)-1H-pyrazol-4-yl]pyrazolo[1,5-a]pyrimidine-3-carboxamide trifluoroacetate] as the compound, how does the IC50 read?
Answer: The IC50 was 1 nM.

Question: How did the IC50 turn out when Cn1cc(NC(=O)c2cnn3ccc(NC4CCCCC4)nc23)c(C(N)=O)n1 [Example 26, N-(3-carbamoyl-1-methyl-1H-pyrazol-4-yl)-5-(cyclohexylamino)pyrazolo[1,5-a]pyrimidine-3-carboxamide trifluoroacetate] was run?
Answer: The IC50 was 180 nM.

Question: How did the IC50 turn out when NC(=O)c1nn(-c2ccncc2)cc1NC(=O)c1cnn2ccc(N3CCNCC3)nc12 [Example 34, N-(3-carbamoyl-1-pyridin-4-yl-1H-pyrazol-4-yl)-5-piperazin-1-ylpyrazolo[1,5-a]pyrimidine-3-carboxamide trifluoroacetate] was run?
Answer: Its IC50 is 25 nM.

Question: NC(=O)c1nn(CCO)cc1NC(=O)c1cnn2ccc(N[C@@H]3CCCC[C@@H]3N)nc12 [Example 23, 5-{[(1R,2S)-2-aminocyclohexyl]amino}-N-[3-carbamoyl-1-(2-hydroxyethyl)-1H-pyrazol-4-yl]pyrazolo[1,5-a]pyrimidine-3-carboxamide trifluoroacetate] was tested. Which IC50 did it give?
Answer: The IC50 was 1 nM.

Question: How did the IC50 turn out when NC(=O)c1ccncc1NC(=O)c1cnn2cccnc12 [Example 45, N-(4-carbamoylpyridin-3-yl)pyrazolo[1,5-a]pyrimidine-3-carboxamide hydrochloride] was run?
Answer: The IC50 was 8100 nM.

Question: For NCCNc1ncc2ccc(C(=O)Nc3cn(CCO)nc3C(N)=O)n2n1 [Example 59, 2-[(2-aminoethyl)amino]-N-[3-carbamoyl-1-(2-hydroxyethyl)-1H-pyrazol-4-yl]pyrrolo[2,1-f][1,2,4]triazine-7-carboxamide trifluoroacetate], which IC50 is on record?
Answer: The IC50 was 2 nM.

Question: How did the IC50 turn out when NC(=O)c1nn(CCO)cc1NC(=O)c1ccc2cnc(N[C@@H]3CCCC[C@@H]3N)nn12 [Example 63, 2-{[(1R,2S)-2-aminocyclohexyl]amino}-N-[3-carbamoyl-1-(2-hydroxyethyl)-1H-pyrazol-4-yl]pyrrolo[2,1-f][1,2,4]triazine-7-carboxamide trifluoroacetate] was run?
Answer: The IC50 was 3 nM.

Question: For Cn1cc(NC(=O)c2ccc3cnc(NCCN)nn23)c(C(N)=O)n1 [Example 58, 2-[(2-Aminoethyl)amino]-N-(3-carbamoyl-1-methyl-1H-pyrazol-4-yl)pyrrolo[2,1-f][1,2,4]triazine-7-carboxamide], which IC50 is on record?
Answer: Its IC50 is 0.9 nM.

Question: Which IC50 does the source give for NC(=O)c1nn(-c2cccnc2)cc1NC(=O)c1cnn2ccc(N[C@H]3CCCC[C@H]3N)nc12 (relative stereo) [Example 6, 5-{[cis-2-aminocyclohexyl]amino}-N-(3-carbamoyl-1-pyridin-3-yl-1H-pyrazol-4-yl)pyrazolo[1,5-a]pyrimidine-3-carboxamide] here?
Answer: The IC50 was 0.8 nM.

Question: For Cn1cc(NC(=O)c2cnn3ccc(NCC4CNC(=O)C4)nc23)c(C(N)=O)n1 (centres unmarked) [Example 29, N-(3-carbamoyl-1-methyl-1H-pyrazol-4-yl)-5-{[(5-oxopyrrolidin-3-yl)methyl]amino}pyrazolo[1,5-a]pyrimidine-3-carboxamide], which IC50 is on record?
Answer: Its IC50 is 270 nM.

Question: Which IC50 does the source give for NCCNc1ccn2ncc(C(=O)Nc3cn(-c4cccnc4)nc3C(N)=O)c2n1 [Example 11, 5-[(2-aminoethyl)amino]-N-(3-carbamoyl-1-pyridin-3-yl-1H-pyrazol-4-yl)pyrazolo[1,5-a]pyrimidine-3-carboxamide] here?
Answer: Its IC50 is 0.7 nM.

Question: With NC(=O)c1cc(Br)ccc1NC(=O)c1cnn2cccnc12 [Example 55, N-(4-bromo-2-carbamoylphenyl)pyrazolo[1,5-a]pyrimidine-3-carboxamide hydrochloride] as the compound, how does the IC50 read?
Answer: Its IC50 is greater than 5000 nM.

Question: NC(=O)c1ncccc1NC(=O)c1cnn2cccnc12 [Example 41, N-(2-Carbamoylpyridin-3-yl)pyrazolo[1,5-a]pyrimidine-3-carboxamide] was tested. Which IC50 did it give?
Answer: The IC50 was 4400 nM.

Question: CNC(=O)c1nn(CCO)cc1NC(=O)c1ccc2cnc(N[C@@H]3CCCC[C@@H]3N)nn12 [Example 65, 2-{[(1R,2S)-2-aminocyclohexyl]amino}-N-[1-(2-hydroxyethyl)-3-(methylcarbamoyl)-1H-pyrazol-4-yl]pyrrolo[2,1-f][1,2,4]triazine-7-carboxamide trifluoroacetate] was tested. Which IC50 did it give?
Answer: The IC50 was 63 nM.

Question: With CCn1cc(NC(=O)c2cnn3ccc(N[C@@H]4CCCC[C@@H]4N)nc23)c(C(N)=O)n1 [Example 21, 5-{[(1R,2S)-2-Aminocyclohexyl]amino}-N-(3-carbamoyl-1-ethyl-1H-pyrazol-4-yl)pyrazolo[1,5-a]pyrimidine-3-carboxamide] as the compound, how does the IC50 read?
Answer: The IC50 was 0.6 nM.

Question: NC(=O)c1nn(-c2ccccn2)cc1NC(=O)c1cnn2ccc(N3CCNCC3)nc12 [Example 37, N-(3-Carbamoyl-1-pyridin-2-yl-1H-pyrazol-4-yl)-5-piperazin-1-ylpyrazolo[1,5-a]pyrimidine-3-carboxamide] was tested. Which IC50 did it give?
Answer: The IC50 was 1000 nM.

Question: With Cn1cc(NC(=O)c2cnn3ccc(NC4CCCCCC4N)nc23)c(C(N)=O)n1 (centres unmarked) [Example 13, 5-[(2-aminocycloheptyl)amino]-N-(3-carbamoyl-1-methyl-1H-pyrazol-4-yl)pyrazolo[1,5-a]pyrimidine-3-carboxamide] as the compound, how does the IC50 read?
Answer: The IC50 was 2 nM.

Question: How did the IC50 turn out when Cn1cc(NC(=O)c2cnn3ccc(N4CCNCC4)nc23)c(C(N)=O)n1 [Example 31, N-(3-carbamoyl-1-methyl-1H-pyrazol-4-yl)-5-piperazin-1-ylpyrazolo[1,5-a]pyrimidine-3-carboxamide hydrochloride] was run?
Answer: The IC50 was 37 nM.

Question: With Cn1cc(NC(=O)c2cnn3ccc(N4CCOCC4)nc23)c(C(N)=O)n1 [Example 30, N-(3-carbamoyl-1-methyl-1H-pyrazol-4-yl)-5-morpholin-4-ylpyrazolo[1,5-a]pyrimidine-3-carboxamide hydrochloride] as the compound, how does the IC50 read?
Answer: The IC50 was 240 nM.

Question: For CNS(=O)(=O)c1ccc(-n2cc(NC(=O)c3cnn4ccc(N5CCNCC5)nc34)c(C(N)=O)n2)cc1 [Example 33, N-{3-Carbamoyl-1-[4-(methylsulfamoyl)phenyl]-1H-pyrazol-4-yl}-5-piperazin-1-ylpyrazolo[1,5-a]pyrimidine-3-carboxamide], which IC50 is on record?
Answer: The IC50 was 4 nM.

Question: COCCn1cc(NC(=O)c2cnn3ccc(N[C@@H]4CCCC[C@@H]4N)nc23)c(C(N)=O)n1 [Example 24, 5-{[(1R,2S)-2-aminocyclohexyl]amino}-N-[3-carbamoyl-1-(2-methoxyethyl)-1H-pyrazol-4-yl]pyrazolo[1,5-a]pyrimidine-3-carboxamide] was tested. Which IC50 did it give?
Answer: Its IC50 is 3 nM.

Question: Cn1cc(NC(=O)c2cnn3ccc(N[C@@H]4CCOC[C@@H]4N)nc23)c(C(N)=O)n1 [Example 2, 5-{[(3R,4R)-3-aminotetrahydro-2H-pyran-4-yl]amino}-N-(3-carbamoyl-1-methyl-1H-pyrazol-4-yl)pyrazolo[1,5-a]pyrimidine-3-carboxamide trifluoroacetate] was tested. Which IC50 did it give?
Answer: Its IC50 is 0.6 nM.

Question: Which IC50 does the source give for CN1CCC(n2cc(NC(=O)c3cnn4ccc(N[C@H]5CCCC[C@H]5N)nc34)c(C(N)=O)n2)CC1 (relative stereo) [Example 19, 5-{[cis-2-Aminocyclohexyl]amino}-N-[3-carbamoyl-1-(1-methylpiperidin-4-yl)-1H-pyrazol-4-yl]pyrazolo[1,5-a]pyrimidine-3-carboxamide] here?
Answer: Its IC50 is 2 nM.
